According to patent publication US7897543B2, “Spiroketal-substituted cyclic ketoenols” (Bayer CropScience AG, priority 2005, dated 2011):
Marks after values point to notes of the source that are not given here.

Tested on: Test plants
Assay: Example U: Pre-emergence Test
Type: in vivo
Conditions: crop plant; greenhouse, 250 g of a.i./ha, after three weeks; sub-table 3
Procedure: To produce a suitable preparation of active compound, 1 part by weight of active compound is mixed with the stated amount of solvent, the stated amount of emulsifier is added and the concentrate is diluted with water to the desired concentration.
Seeds of the test plants are sown in normal soil. After about 24 hours, the soil is sprayed with the preparation of active compound such that the particular amounts of active compound desired are applied per unit area. The concentration of the spray liquor is chosen such that the particular amounts of active compound desired are applied in 1000 l of water/ha.
After three weeks, the degree of damage to the plants is rated in % damage in comparison to the development of the untreated control.
The figures denote: • 0%=no effect (like untreated control) • 100%=total destruction

| Structure (SMILES) | damage, Sugar beet |
| --- | --- |
| Cc1cc(Cl)cc(C)c1C1=C(O)C2(CCC3(CC2)OCCCO3)NC1=O [Ex. I-1-a-14] | 0% |

Same assay, conditions: greenhouse, 250 g of a.i./ha, after three weeks; sub-table 2

| Structure (SMILES) | damage, Alopecurus | damage, Echinochloa | damage, Setaria | damage, Sinapis | damage, Avena fatua |
| --- | --- | --- | --- | --- | --- |
| CCOC(=O)OC1=C(c2c(C)cc(Cl)cc2Cl)C(=O)NC12CCC1(CC2)OCCO1 [Ex. I-1-c-4] | 80% | 90% | 99% | 80% | – |
| Cc1cc(Cl)cc(Cl)c1C1=C(O)C2(CCC3(CC2)OCCCO3)NC1=O [Ex. I-1-a-11] | 90% | 80% | 90% | – | 70% |

Same assay, conditions: greenhouse, 250 g of a.i./ha, after three weeks; sub-table 3

| Structure (SMILES) | damage, Alopecurus | damage, Avena fatua | damage, Echinochloa | damage, Setaria |
| --- | --- | --- | --- | --- |
| Cc1cc(Cl)cc(C)c1C1=C(O)C2(CCC3(CC2)OCCCO3)NC1=O [Ex. I-1-a-14] | 95% | 80% | 80% | 90% |

Same assay, conditions: greenhouse, 250 g of a.i./ha, after three weeks; sub-table 4

| Structure (SMILES) | damage, Alopecurus | damage, Echinochloa | damage, Setaria |
| --- | --- | --- | --- |
| Cc1cc(Cl)cc(Cl)c1C1=C(O)C2(CCC3(CC2)OCCCO3)NC1=O [Ex. I-1-a-11] | 80% | 80% | 100% |

Tested on: Phaedon cochleariae
Assay: Example N: Phaedon Test (spray treatment)
Type: in vivo
Conditions: application rate 500 g/ha
Procedure: [table] To produce a suitable preparation of active compound, 1 part by weight of active compound is mixed with the stated amounts of solvents and emulsifier, and the concentrate is diluted with emulsifier-containing water to the desired concentration. Discs of Chinese cabbage (Brassica pekinensis) are sprayed with a preparation of active compound of the desired concentration and, after drying, populated with larvae of the mustard beetle (Phaedon cochleariae).

| Structure (SMILES) | activity in % |
| --- | --- |
| Cc1cc(Cl)cc(C)c1C1=C(O)C2(CCC3(CC2)OC(C)CC(C)O3)NC1=O (mixture of isomers) [Ex. I-1-a-38] | 100% |
| COCC1COC2(CCCC3(C2)NC(=O)C(c2c(C)cc(C)cc2C)=C3O)O1 (mixture of isomers) [Ex. I-1-a-71] | 100% |
| Cc1cc(Cl)cc(C)c1C1=C(O)C2(CCC3(CC2)OC(C)C(C)O3)NC1=O (mixture of isomers) [Ex. I-1-a-30] | 100% |
| Cc1ccc(-c2ccc(Cl)cc2)cc1C1=C(O)C2(CCC3(CC2)OCCO3)NC1=O [Ex. I-1-a-27] | 100% |
| CCOC(=O)OC1=C(c2cc(C)ccc2C)C(=O)NC12CCC1(CC2)OCC(C)O1 (mixture of isomers) [Ex. I-1-c-19] | 100% |
| Cc1cc(C)c(C2=C(O)C3(CCC4(CC3)OC(C)C(C)O4)NC2=O)c(C)c1 (mixture of isomers) [Ex. I-1-a-10] | 100% |
| CCOC(=O)OC1=C(c2c(C)cc(C)cc2OC)C(=O)NC12CCC1(CC2)OCCCO1 [Ex. I-1-c-34] | 100% |
| CCc1cc(Br)cc(C)c1C1=C(O)C2(CCC3(CC2)OC(C)CC(C)O3)NC1=O (mixture of isomers) [Ex. I-1-a-63] | 100% |
| CCCC1COC2(CCC3(CC2)NC(=O)C(c2c(C)cc(C)cc2C)=C3O)O1 (stereo not drawn) [Ex. I-1-a-8] | 100% |
| Cc1ccc(-c2ccc(Cl)cc2)cc1C1=C(O)C2(CCC3(CC2)OC(C)C(C)O3)NC1=O (mixture of isomers) [Ex. I-1-a-54] | 100% |
| COc1cc(C)cc(C)c1C1=C(O)C2(CCC3(CC2)OCCCO3)NC1=O [Ex. I-1-a-24] | 100% |
| Cc1cc(Cl)cc(C)c1C1=C(O)C2(CCC3(CC2)OCC(C)O3)NC1=O (mixture of isomers) [Ex. I-1-a-31] | 100% |
| Cc1cc(Br)cc(C)c1C1=C(O)C2(CCC3(CC2)OC(C)CC(C)O3)NC1=O (mixture of isomers) [Ex. I-1-a-56] | 100% |
| Cc1ccc(-c2ccc(Cl)cc2)cc1C1=C(O)C2(CCC3(CC2)OCCCO3)NC1=O [Ex. I-1-a-16] | 100% |
| Cc1cc(Cl)cc(C)c1C1=C(O)C2(CCC3(CC2)OCC(C)(C)CO3)NC1=O [Ex. I-1-a-20] | 100% |
| CCc1cc(Br)cc(C)c1C1=C(O)C2(CCC3(CC2)OC(C)C(C)O3)NC1=O (mixture of isomers) [Ex. I-1-a-45] | 100% |
| Cc1cc(Br)cc(C)c1C1=C(O)C2(CCC3(CC2)OCC(C)(C)CO3)NC1=O [Ex. I-1-a-33] | 100% |
| CC1(C)COC2(CCC3(CC2)NC(=O)C(c2cc(-c4ccc(Cl)cc4)ccc2Cl)=C3O)OC1 [Ex. I-1-a-64] | 100% |

| Structure (SMILES) | activity in % |
| --- | --- |
| Cc1ccc(-c2ccc(Cl)cc2)cc1C1=C(O)C2(CCC3(CC2)OCC(C)(C)CO3)NC1=O [Ex. I-1-a-67] | 100% |
| Cc1ccc(-c2ccc(Cl)cc2)cc1C1=C(O)C2(CCC3(CC2)OCC(C)O3)NC1=O (mixture of isomers) [Ex. I-1-a-52] | 100% |
| Cc1ccc(C)c(C2=C(O)C3(CCC4(CC3)OCCO4)NC2=O)c1 [Ex. I-1-a-68] | 100% |
| Cc1ccc(C)c(C2=C(O)C3(CCC4(CC3)OCC(C)(C)CO4)NC2=O)c1 [Ex. I-1-a-61] | 100% |
| CCc1cc(Br)cc(C)c1C1=C(O)C2(CCC3(CC2)OCCO3)NC1=O [Ex. I-1-a-39] | 100% |
| CCCC1COC2(CCC3(CC2)NC(=O)C(c2c(C)cc(C)cc2C)=C3O)O1 (single isomer, unassigned) [Ex. I-1-a-9] | 100% |
| CC1COC2(CCC3(CC2)NC(=O)C(c2cc(-c4ccc(Cl)cc4)ccc2Cl)=C3O)OC1 (mixture of isomers) [Ex. I-1-a-65] | 100% |
| Cc1cc(Br)cc(C)c1C1=C(O)C2(CCC3(CC2)OC(C)C(C)O3)NC1=O (mixture of isomers) [Ex. I-1-a-46] | 100% |
| Cc1ccc(-c2ccc(Cl)cc2)c(C)c1C1=C(O)C2(CCC3(CC2)OCC(C)O3)NC1=O (mixture of isomers) [Ex. I-1-a-51] | 100% |
| Cc1cc(Br)cc(C)c1C1=C(O)C2(CCC3(CC2)OCC(C)CO3)NC1=O (mixture of isomers) [Ex. I-1-a-32] | 100% |
| Cc1cc(Cl)cc(C)c1C1=C(O)C2(CCC3(CC2)OCC(C)CO3)NC1=O (mixture of isomers) [Ex. I-1-a-34] | 100% |
| COc1cc(C)cc(C)c1C1=C(O)C2(CCC3(CC2)OCCO3)NC1=O [Ex. I-1-a-43] | 100% |
| Cc1ccc(-c2ccc(Cl)cc2)cc1C1=C(O)C2(CCC3(CC2)OCCC(C)O3)NC1=O (mixture of isomers) [Ex. I-1-a-66] | 100% |
| CCc1cc(Br)cc(C)c1C1=C(O)C2(CCC3(CC2)OCC(C)O3)NC1=O (mixture of isomers) [Ex. I-1-a-53] | 100% |
| CCOC(=O)OC1=C(c2cc(-c3ccc(Cl)cc3)ccc2C)C(=O)NC12CCC1(CC2)OCCCO1 [Ex. I-1-c-31] | 100% |
| O=C1NC2(CCC3(CC2)OCCO3)C(O)=C1c1cc(-c2ccc(Cl)cc2)ccc1Cl [Ex. I-1-a-49] | 100% |
| Cc1cc(Br)cc(C)c1C1=C(O)C2(CCC3(CC2)OCC(C)O3)NC1=O (mixture of isomers) [Ex. I-1-a-47] | 100% |

Tested on: not listed separately
Assay: log P determination by HPLC/LC-MS retention times, calibration with alkan-2-ones
Type: physicochemical
Conditions: HPLC on reversed-phase column (C 18), 43° C., EEC Directive 79/831 Annex V.A8
Procedure: In the acidic range, the determination is carried out at pH 2.3 using 0.1% aqueous phosphoric acid and acetonitrile as mobile phases; linear gradient from 10% acetonitrile to 95% acetonitrile.
The determination by LC-MS in the acidic range is carried out at pH 2.7 using 0.1% aqueous formic acid and acetonitrile (comprises 0.1% formic acid) as mobile phases; linear gradient from 10% acetonitrile to 95% acetonitrile.
The determination by LC-MS in the neutral range is carried out at pH 7.8 using 0.001 molar aqueous ammonium bicarbonate solution and acetonitrile as mobile phases; linear gradient from 10% acetonitrile to 95% acetonitrile.
Calibration is carried out using unbranched alkan-2-ones (having 3 to 16 carbon atoms) with known log P values (determination of the log P values by the retention times using linear interpolation between two successive alkanones).

| log P | Structure (SMILES) |
| --- | --- |
| log P 2.59* | COC(=O)C1(NC(=O)Cc2cc(C)c(C)cc2C)CCC2(CC1)OCCCO2 [II-17] |
| log P 2.68 | COC(=O)C1(NC(=O)Cc2c(C)cc(C)cc2C)CCC2(CC1)OCCO2 [II-2] |
| log P 3.47* | COC(=O)C1(NC(=O)Cc2cc(-c3ccc(Cl)cc3)ccc2C)CCC2(CC1)OCCO2 [II-31] |
| wax log P 3.19* | CCc1cc(Br)cc(C)c1CC(=O)NC1(C(=O)OC)CCC2(CC1)OCCO2 [II-9] |
| wax log P 2.95* | CCc1cc(C)cc(C)c1CC(=O)NC1(C(=O)OC)CCC2(CC1)OCCO2 [II-8] |
| log P 3.04* | CCc1cc(C)cc(Br)c1CC(=O)NC1(C(=O)OC)CCC2(CC1)OCCO2 [II-36] |
| wax log P 2.81* | COC(=O)C1(NC(=O)Cc2c(C)cc(Br)cc2C)CCC2(CC1)OCCO2 [II-7] |
| log P 3.28* | CCc1cc(C)cc(CC)c1CC(=O)NC1(C(=O)OC)CCC2(CC1)OCCO2 [II-32] |
| log P 2.49* | COC(=O)C1(NC(=O)Cc2c(C)cc(C)cc2OC)CCC2(CC1)OCCCO2 [II-24] |

Same assay, conditions: HPLC/LC-MS retention times; printed in the Isomer column of the (I-1-a) table

| chromatographic logP | Structure (SMILES) |
| --- | --- |
| 2.73 | CCCC1COC2(CCC3(CC2)NC(=O)C(c2c(C)cc(C)cc2C)=C3O)O1 (stereo not drawn) [Ex. I-1-a-8] |

Same assay, conditions: printed in the Isomer column of the (I-1-a) table

| logP | Structure (SMILES) |
| --- | --- |
| 2.78 | CCCC1COC2(CCC3(CC2)NC(=O)C(c2c(C)cc(C)cc2C)=C3O)O1 (single isomer, unassigned) [Ex. I-1-a-9] |

Tested on: monocotyledonous and dicotyledonous weed and crop plants
Assay: Example V 2: Herbicidal Post-Emergence Action
Type: in vivo
Conditions: greenhouse, 320 g of a.i./ha, about 3 weeks
Procedure: (§1) Seeds of monocotyledonous and dicotyledonous weed and crop plants are placed into sandy loam in wood fibre pots, covered with soil and cultivated in a greenhouse under good growth conditions. 2-3 weeks after sowing, the test plants are treated at the one-leaf stage. The test compounds, formulated as wettable powders (WP), are then, in various dosages with a water application rate of 600 l/ha (converted), with 0.2% of wetting agent added, sprayed onto the green parts of the plants. After the test plants have been kept in the greenhouse under optimum growth conditions for about 3 weeks, the effect of the preparations is rated visually in comparison to untreated controls (herbicidal effect in percent (%): 100% effect=the plants have died, 0% effect=like control plants).

| Structure (SMILES) | herbicidal effect, Amaranthus | herbicidal effect, Stellaria |
| --- | --- | --- |
| Cc1cc(Br)cc(C)c1C1=C(O)C2(CCC3(CC2)OCCO3)OC1=O [Ex. I-2-a-5] | 70% | 60% |

Tested on: Lolium multiflorum
Assay: Example V 2: Herbicidal Post-Emergence Action
Type: in vivo
Conditions: greenhouse, 320 g of a.i./ha, about 3 weeks
Procedure: as §1

| Structure (SMILES) | herbicidal effect, Lolium |
| --- | --- |
| Cc1cc(Cl)cc(C)c1C1=C(OC(=O)C(C)C)C2(CCC3(CC2)OCC(CCl)O3)OC1=O (stereo not drawn) [Ex. I-2-b-3] | 100% |
| Cc1cc(Br)cc(C)c1C1=C(O)C2(CCC3(CC2)OCCO3)OC1=O [Ex. I-2-a-5] | 100% |

Tested on: Echinocloa crus-galli
Assay: Example V 2: Herbicidal Post-Emergence Action
Type: in vivo
Conditions: greenhouse, 320 g of a.i./ha, about 3 weeks
Procedure: as §1

| Structure (SMILES) | herbicidal effect, Echinochloa |
| --- | --- |
| Cc1cc(Cl)cc(C)c1C1=C(OC(=O)C(C)C)C2(CCC3(CC2)OCC(CCl)O3)OC1=O (stereo not drawn) [Ex. I-2-b-3] | 80% |

Tested on: Setaria viridis
Assay: Example V 2: Herbicidal Post-Emergence Action
Type: in vivo
Conditions: greenhouse, 320 g of a.i./ha, about 3 weeks
Procedure: as §1

| Structure (SMILES) | herbicidal effect, Setaria |
| --- | --- |
| Cc1cc(Cl)cc(C)c1C1=C(OC(=O)C(C)C)C2(CCC3(CC2)OCC(CCl)O3)OC1=O (stereo not drawn) [Ex. I-2-b-3] | 90% |
| Cc1cc(Br)cc(C)c1C1=C(O)C2(CCC3(CC2)OCCO3)OC1=O [Ex. I-2-a-5] | 70% |
